{
  "source": "patent US20210290741A1",
  "about": "“COMPOSITIONS FOR THE TREATMENT OF GRAFT VERSUS HOST DISEASE” (DA VOLTERRA, priority 2018, published 2021)",
  "system": "acute Graft vs Host disease",
  "experiment": "Acute graft vs host disease after bone marrow + T cell transplant in lethally irradiated mice, survival (Example 5)",
  "assay_type": "in vivo, mice (129, female)",
  "settings": "129 mice, C57BL/6 bone marrow + T cells at day 0, imipenem 100 mg/kg s.c. 3 times a week day 10-21, activated charcoal 14.4 mg/g in food day 9-22",
  "protocol": "30 mice (129, female) were lethally irradiated and transplanted with 5 million C57BL/6 T-cell depleted bone marrow cells as well as 1 million C57BL/6 splenic T cells at day 0.\nThe mice were then split in 3 groups. In group A, they received no further treatment. In group B, an imipenem treatment was initiated at day 10. It consisted of an administration of imipenem (100 mg/kg), 3 times a week by subcutaneous route. The imipenem treatment was stopped at day 21. In group C, the same imipenem treatment as group B was performed. In addition, group C mice received activated charcoal (14.4 mg/g) mixed with their food in a hydrogel every day from day 9 to day 22.\nThe clinical status of the mice was monitored every day from day 1 to day 21.",
  "data": [
    {"smiles": "C[C@@H](O)[C@H]1C(=O)N2C(C(=O)O)=C(SCCN=CN)C[C@H]12", "note": "[imipenem]", "values": [
      {"measurement": "Survival at day 21", "value": 60, "unit": "%"}
    ]}
  ]
}
